# Data as given in patent publication US20060063794A1, “Method of attenuating graft rejection” (Fujisawa Pharmaceutical Co., Ltd., priority 2004, published 2006).
# “Also recorded” adds a separate entry of the source.
# Assays:
# [1] = test system: B-cell proliferation; T cells; conditions: in vitro, FK778 in combination with Tacrolimus (FK506); cited from earlier work
# [2] = test system: human kidney transplant recipients; experiment: Same trial: safety, adverse events, laboratory values, withdrawals; format: in vivo; conditions: for Median serum creatine value: at study end; for Mean hemoglobin level: day 84
# Protocol: FK778 and placebo were administered in a double-blind manner. […] Patients in arm 2 received one dose of 600 mg/day and continued on 75 mg/day. Subsequent doses were adjusted to maintain trough levels of FK778 in the range of 100-200 μg/mL (arm 1) and 10-100 μg/mL (arm 2). Trough levels of FK778 were centrally determined. Doses of FK778 were adjusted according to the recommendations of an independent panel. Treatment of adults of both genders was studied in a multi-center, randomized, double-blind trial. Three groups were studied. Group H was treated with high dose FK778/tarcolimus/steroids; Group L was treated with low dose FK778/tarcolimus/steroids; and Group P was treated with placebo/Tacrolimus/steroids. Tacrolimus was given as an initial dose of 0.2 mg/kg per os divided into two equal doses, one pre-operatively and one post-operatively. Subsequent doses were adjusted to reach target Tacrolimus whole blood trough concentrations of 10-20 ng/mL on Days 0-30, and 5-15 ng/mL on Days 31-84. Methylprednisolone was perioperatively administered at 1000 mg i.v. or less and 125 mg on Day 1. A prednisolone equivalent was given orally at 20 mg from Day 2-14, at 15 mg on Day 15-28, at 10 mg from Day 29-42 and 5 mg from Day 43-84. Oral tablets of FK778/placebo were administered in a double-blind manner. […] This was the maximum permitted daily dose of FK778. […] Dose adaptations were to be performed from day 7 onwards. Subsequent doses were adjusted to maintain plasma trough levels of FK778 in the target ranges of 100-200 μg/mL (H) and 10-100 μg/mL (L). The primary efficacy endpoint was the incidence of AR proven by local biopsy over the first 12 weeks. […] On a continuous basis safety was assessed by patient and graft survival, adverse event monitoring, routine laboratory evaluations and vital signs. Treatment emergent adverse events were coded according to the MedDRA dictionary (version 5.0). All analyses were based on the full analysis set which included all patients randomised who received at least one dose of FK778/placebo (intent-to-treat principle). Decreasing Kaplan-Meier plots were provided. Pair-wise comparisons of the incidence of adverse events between the treatment groups were made using Fisher's exact test.
# rat cardiac allografts = conditions: rats, cited from earlier work
# renal allograft = conditions: rats, concomitant 14-day regimen FK778 (10/mg/kg/day) and Tacrolimus (1 mg/k/day); cited from earlier work
# CMV = conditions: animal models; cited from earlier work
# [3] = test system: chronic kidney allograft rejection; conditions: cited from earlier work
# [4] = Same trial: FK778 plasma trough levels; format: in vivo, human
# Protocol: Patients in group H received loading doses of 600 mg/day on Day 1 and 2 and continued on 150 mg/day. This was the maximum permitted daily dose of FK778. Patients in group L received 600 mg/day only on Day 1 and continued on 75 mg/day. Dose adaptations were to be performed from day 7 onwards. Subsequent doses were adjusted to maintain plasma trough levels of FK778 in the target ranges of 100-200 μg/mL (H) and 10-100 μg/mL (L).
# The assay of FK778 trough concentrations were centrally performed in an independent laboratory and an independent unblinded pharmacokinetic (PK)-panel (Covance, UK) used the plasma FK778 levels to make dose adjustments when necessary. In addition, dummy adjustments in the placebo arm were performed. Concentrations were determined initially every other day, from day 14-42 weekly, and afterwards every other week.
smiles,measurement,setting,value
"C#CCC/C(O)=C(\C#N)C(=O)Nc1ccc(C(F)(F)F)cc1 [FK778, (2Z)-2-cyano-3-hydroxy-N-[4-(trifluromethyl)phenyl]-2-hepten-6-ynamide]",Effect in T cells,[1],antagonistic tendency
same,Effect on B-cell proliferation,[1],synergistic inhibition of B-cell proliferation
same,Overall assessment of the trial,"[2]; FK778 with Tacrolimus and corticosteroids, renal transplantation","pharmacologically active, well tolerated, and safe; also recorded: pharmacologically active, well tolerated and safe"
same,"Anemias NEC, number of patients",[2]; High level FK778 (group H),21
same,"Angina pectoris, number of patients",[2]; High level FK778 (group H),1
same,Hyperkalemia (%),[2]; High level FK778 (group H),(4.1) %
same,"Hyperkalemia, number of patients",[2]; High level FK778 (group H),2
same,Hypokalemia (%),[2]; High level FK778 (group H),(12.2) %
same,"Hypokalemia, number of patients",[2]; High level FK778 (group H),6
same,Ischemic coronary artery disorders (%),[2]; High level FK778 (group H),(4.1) %
same,"Ischemic coronary artery disorders, number of patients",[2]; High level FK778 (group H),2
same,"Myocard. Ischemia, number of patients",[2]; High level FK778 (group H),1
same,"O. NOS, number of patients",[2]; High level FK778 (group H),1
same,"O. hemorrhagic, number of patients",[2]; High level FK778 (group H),1
same,Oesophagilis (%),[2]; High level FK778 (group H),(8.2) %
same,"Oesophagilis, number of patients",[2]; High level FK778 (group H),4
same,"Reflux O., number of patients",[2]; High level FK778 (group H),2
same,Withdrawn: Adverse event (%),[2]; High level FK778 (group H),(18.4) %
same,"Withdrawn: Adverse event, number of patients",[2]; High level FK778 (group H),9
same,Withdrawn: Death (%),[2]; High level FK778 (group H),(2.0) %
same,"Withdrawn: Death, number of patients",[2]; High level FK778 (group H),1
same,Withdrawn: Graft failure (%),[2]; High level FK778 (group H),(6.1) %
same,"Withdrawn: Graft failure, number of patients",[2]; High level FK778 (group H),3
same,Withdrawn from treatment (%),[2]; High level FK778 (group H) + Tacrolimus/steroids,(28.6) %
same,"Withdrawn from treatment, number of patients","[2]; High level FK778 (group H) + Tacrolimus/steroids, N=49",14
same,"Anemias NEC, number of patients",[2]; Low level FK778 (group L),17
same,"Angina pectoris, number of patients",[2]; Low level FK778 (group L),5
same,Hyperkalemia (%),[2]; Low level FK778 (group L),(11.1) %
same,"Hyperkalemia, number of patients",[2]; Low level FK778 (group L),6
same,Hypokalemia (%),[2]; Low level FK778 (group L),(0.0) %
same,"Hypokalemia, number of patients",[2]; Low level FK778 (group L),0
same,Ischemic coronary artery disorders (%),[2]; Low level FK778 (group L),(13.0) %
same,"Ischemic coronary artery disorders, number of patients",[2]; Low level FK778 (group L),7
same,"Myocard. Infarction, number of patients",[2]; Low level FK778 (group L),1
same,"Myocard. Ischemia, number of patients",[2]; Low level FK778 (group L),1
same,Oesophagilis (%),[2]; Low level FK778 (group L),(0.0) %
same,"Oesophagilis, number of patients",[2]; Low level FK778 (group L),0
same,Withdrawn: Adverse event (%),[2]; Low level FK778 (group L),(13.0) %
same,"Withdrawn: Adverse event, number of patients",[2]; Low level FK778 (group L),7
same,Withdrawn: Graft failure (%),[2]; Low level FK778 (group L),(5.6) %
same,"Withdrawn: Graft failure, number of patients",[2]; Low level FK778 (group L),3
same,Withdrawn from treatment (%),[2]; Low level FK778 (group L) + Tacrolimus/steroids,(25.9) %
same,"Withdrawn from treatment, number of patients","[2]; Low level FK778 (group L) + Tacrolimus/steroids, N=54",14
same,"Withdrawn: Death, number of patients","[2]; Low level FK778 (group L), one patient died the day after withdrawal",0
same,Reversibility of anemia,[2]; after cessation of FK778 treatment,reversible after cessation of FK778 treatment; also recorded: quickly reversed after cessation of FK778 treatment
same,Systolic and diastolic blood pressure values,[2]; both FK778 arms,trend towards lower
same,"Mean total cholesterol and mean LDL-cholesterol levels, lower compared to placebo group","[2]; both FK778 groups, during the treatment phase",~20%
same,Bilirubin levels,[2]; group H,slightly elevated
same,Median serum creatine value,[2]; group H,138 µmol/L
same,Mean hemoglobin level,[2]; group H,102.6 g/L
same,Patients who died during the study,"[2]; group H, high level FK778",one
same,Median serum creatine value,[2]; group L,149 µmol/L
same,Mean hemoglobin level,[2]; group L,119 g/L
same,Patients who died during the study,"[2]; group L, low level FK778",one
same,Liver enzyme values,[2]; throughout the study,no changes
same,Prolongation of graft survival,rat cardiac allografts; 20 mg/kg for ten days,about two
same,Median graft survival,rat cardiac allografts; MNA 715 (20/mg/kg) combined with Tacrolimus (2.4 mg/kg) for ten days,19 days
same,Effect on renal allograft survival,renal allograft,synergistically prolonged renal allograft survival
same,Effect on CMV disease,CMV,attenuates CMV disease
same,Optimal dose,"[3]; rat, given for ten days following transplantation",10 mg/kg/day
same,Effect on chronic kidney allograft rejection,[3]; rats,prevented chronic kidney allograft rejection; also recorded: reduced functional and histologic chronic kidney allograft rejection
same,Maximum FK778 plasma trough level,"[4]; group H, Day 3",142.4 µg/mL
same,Median FK778 plasma trough level,"[4]; group H, Day 3",84.34 µg/mL
same,Mean FK778 plasma trough level,"[4]; group H, Day 3, after loading doses 600 mg/day on Day 1 and 2",86.97 ± 26.23 µg/mL
same,Mean FK778 plasma trough level,"[4]; group H, Day 7",93.58 µg/mL
same,Mean FK778 plasma trough level,"[4]; group H, Day 28",175.66 µg/mL
same,Median FK778 plasma trough level,"[4]; group L, Day 2",41.35 µg/mL
same,Mean FK778 plasma trough level,"[4]; group L, Day 2, after loading dose 600 mg/day on Day 1",38.30 ± 21.14 µg/mL
same,Mean FK778 plasma trough level,"[4]; group L, Day 11",31.53 ± 21.26 µg/mL
same,Median FK778 plasma trough level,"[4]; group L, Day 11",28.35 µg/mL
same,Mean FK778 plasma trough level,"[4]; group L, Day 42",62.36 ± 27.60 µg/mL
same,Median FK778 plasma trough level,"[4]; group L, Day 42",59.36 µg/mL
